Results published in patent publication US4621094A, “Anti-histaminic pyridyl compounds” (priority 1984, dated 1986).

Target: T1, H1 histamine receptor (Cavia porcellus, UniProt P31389)
T1 construct: The longitudinal muscle was isolated from the intact ileum of guinea pigs; from tissue; host or cells: ileum longitudinal muscle, guinea pig (Hartley, male 250-400 g)
Experiment: Antihistaminic activity: antagonism of histamine concentration-response curves in isolated guinea pig ileum longitudinal muscle (Schild plot)
Type: cell-based, guinea pigs
Conditions: negative log of molar antagonist concentration shifting the control histamine concentration-response curve 2X to the right; tissue incubated one hour with test compound; organ bath, 300 mg tension; read-out: pA2 (converted)
Method: The longitudinal muscle was isolated from the intact ileum of guinea pigs (Hartley, male 250-400 g) and placed in an organ bath under 300 mg tension. After one hour of equilibration, cumulative concentration-response curves (Van Rossum, J. M., Arch. Int. Pharmacodyn. Ther. 143, 299-330, 1963) to histamine were obtained. Following washing, the tissues were incubated for one hour with the test compound and then a second histamine concentration-response curve was run. Shifts to the right of the agonist concentration-response curve produced by the antagonists were used to construct Schild plots (Arunlakshana, O. And Schild, H. O., Br. J. Pharmacol: 14, 48-58, 1959 ). Regression of Log (dr-1) on Log [B], where dr is an equiactive response in the presence and absence of antagonist and [B] is the molar concentration of antagonist, allowed an estimate of pA2, i.e. the negative log of the concentration of antagonist which shifts the control histamine concentration-response curve 2X to the right.

T1 sequence (P31389 whole entry): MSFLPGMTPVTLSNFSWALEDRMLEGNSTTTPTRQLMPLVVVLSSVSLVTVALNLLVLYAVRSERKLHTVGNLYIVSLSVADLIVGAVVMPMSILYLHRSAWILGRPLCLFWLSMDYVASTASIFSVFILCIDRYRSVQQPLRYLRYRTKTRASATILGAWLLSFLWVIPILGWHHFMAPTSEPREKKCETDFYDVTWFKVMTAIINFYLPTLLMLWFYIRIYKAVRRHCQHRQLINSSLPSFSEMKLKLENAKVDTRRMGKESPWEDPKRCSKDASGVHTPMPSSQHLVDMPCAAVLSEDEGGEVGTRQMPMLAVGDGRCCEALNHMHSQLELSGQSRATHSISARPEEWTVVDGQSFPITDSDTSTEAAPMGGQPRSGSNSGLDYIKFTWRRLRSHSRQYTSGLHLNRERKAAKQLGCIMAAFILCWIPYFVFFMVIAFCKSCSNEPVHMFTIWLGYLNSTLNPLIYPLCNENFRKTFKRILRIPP

Kb: 2 µM
Compound: CN(C)CCC(c1ccc(Cl)cc1)c1cccc(/C=C/C(=O)O)n1 (stereo not shown) [(E)-6-(1-(4-chlorophenyl)-3-dimethylaminopropyl)-2-pyridyl acrylic acid]
